Reference: ChEMBL document CHEMBL1156969 (Bioorg Med Chem Lett, 2010)
Activity calls are given as the source filed them. The calls are words filed in the database; no cut-off is given here.

How the values were obtained:
[1] = target: T1, Melatonin receptor type 1B (Homo sapiens, UniProt P49286); assay: Displacement of [3H]melatonin from human melatonin MT2 receptor expressed in CHO cells after 60 mins by scintillation counting; type: cell-based
T1 sequence (P49286 whole entry): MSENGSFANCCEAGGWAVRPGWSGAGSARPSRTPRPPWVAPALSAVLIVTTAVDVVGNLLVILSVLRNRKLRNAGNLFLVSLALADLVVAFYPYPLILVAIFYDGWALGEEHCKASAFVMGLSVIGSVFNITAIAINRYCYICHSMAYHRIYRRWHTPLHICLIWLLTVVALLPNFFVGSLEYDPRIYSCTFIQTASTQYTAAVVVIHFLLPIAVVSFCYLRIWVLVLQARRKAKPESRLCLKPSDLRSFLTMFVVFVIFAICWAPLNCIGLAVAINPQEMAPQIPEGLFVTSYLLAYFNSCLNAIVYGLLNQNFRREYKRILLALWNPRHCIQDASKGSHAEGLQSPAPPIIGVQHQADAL

[2] = target: Melatonin receptor type 1A (Homo sapiens, UniProt P48039); assay: Displacement of [3H]melatonin from human melatonin MT1 receptor expressed in CHO cells after 60 mins by scintillation counting; type: cell-based
Sequence of Melatonin receptor type 1A (P48039 whole entry): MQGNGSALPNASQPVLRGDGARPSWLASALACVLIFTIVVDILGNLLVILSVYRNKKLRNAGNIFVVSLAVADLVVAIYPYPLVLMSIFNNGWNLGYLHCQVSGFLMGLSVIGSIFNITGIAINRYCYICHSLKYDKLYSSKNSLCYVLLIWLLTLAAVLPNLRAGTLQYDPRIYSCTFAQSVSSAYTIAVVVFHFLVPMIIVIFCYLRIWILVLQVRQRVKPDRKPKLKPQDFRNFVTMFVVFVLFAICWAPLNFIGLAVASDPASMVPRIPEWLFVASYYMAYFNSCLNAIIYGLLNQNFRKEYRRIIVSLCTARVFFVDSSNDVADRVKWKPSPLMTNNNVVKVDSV

Homo sapiens = species: Homo sapiens; assay: Selectivity ratio of Ki for human melatonin MT1 receptor to Ki for human melatonin MT2 receptor
[3] = Lipophilicity, log P of the compound; type: physicochemical; conditions: octanol/water
[4] = target: T2, Melatonin receptor type 1B (Homo sapiens) (UniProt P49286); assay: Agonist activity at human MT2 receptor expressed as CHO cells assessed as intracellular Ca2+ accumulation by FLIPR assay; type: functional, cell-based
T2 sequence (whole entry): T1 sequence (P49286 whole entry)

| Compound | Ki [1] [nM] | Ki [2] [nM] | Ratio Ki (Homo sapiens) | logP [3] | Activity [4] |
| --- | --- | --- | --- | --- | --- |
| CCC(=O)NCCCc1cccc(OC)c1 | 7.07 | 85.4 | 12 | – | – |
| COc1ccc2[nH]cc(CCNC(C)=O)c2c1 [MELATONIN] | – | – | – | 2.16 | – |
| COc1cc(COc2ccc(OC)cc2CCCNC(C)=O)cc(OC)c1 | 0.0326 | – | – | – | – |
| COc1ccc(OCc2ccccc2)c(CCCNC(=O)c2ccccc2)c1 | 2300 | – | – | – | – |
| COc1cccc(COc2ccc(CCCNC(C)=O)cc2OC)c1 | 105 | 1460 | 13.9 | – | – |
| COc1cc(CCCNC(C)=O)ccc1OCc1ccccc1 | 69.3 | 8980 | 130 | – | – |
| COc1cccc(CCCNC(C)=O)c1 | 0.751 | 23.3 | 31 | – | – |
| COc1ccc(O)c(CCCNC(C)=O)c1 | 46.2 | 379 | 8.22 | – | – |
| CCCC(=O)NCCCc1cc(OC)ccc1OCc1ccccc1 | 0.00103 | 1170 | 1.14e+06 | – | Active |
| CCC(=O)NCCCc1ccc(OCc2ccccc2)c(OC)c1 | 121 | 2010 | 16.7 | – | – |
| COc1cc(CCCNC(C)=O)ccc1O | 12.6 | 257 | 20.5 | – | – |

Now from value to compound:

| Ki [1] [nM] | Ki [2] [nM] | Ratio Ki (Homo sapiens) | logP [3] | Activity [4] | Compound |
| --- | --- | --- | --- | --- | --- |
| 1.59 | 183 | 116 | – | – | CCOc1ccc(OC)cc1CCCNC(C)=O |
| 13.4 | 2930 | 219 | – | – | COc1ccc(OCCc2ccccc2)c(CCCNC(C)=O)c1 |
| 72.2 | – | – | – | – | COc1ccc(OCCCc2ccccc2)c(CCCNC(C)=O)c1 |
| 0.0471 | 879 | 18700 | – | – | COc1ccc(OCc2ccccc2)c(CCCNC(C)=O)c1 |
| 2.12 | 400 | 189 | – | – | CCCOc1ccc(OC)cc1CCCNC(C)=O |
| 27.9 | 2700 | 97 | – | – | COc1ccc(COc2ccc(OC)cc2CCCNC(C)=O)cc1 |
| 102 | – | – | – | – | COc1ccc(OCc2ccc(Br)cc2F)c(CCCNC(C)=O)c1 |
| 1.61 | 1840 | 1150 | – | – | COc1ccc(OCc2ccccn2)c(CCCNC(C)=O)c1 |
| 26.1 | 1280 | 49.1 | – | – | COc1ccc(OC)c(CCCNC(C)=O)c1 |
| 0.00055 | 263 | 473000 | – | Active | CCC(=O)NCCCc1cc(OC)ccc1OCc1ccccc1 |
| – | 705 | – | – | – | COc1cccc(COc2ccc(OC)cc2CCCNC(C)=O)c1 |
